# Data published in patent US20050048128A1, “Process for producing collagen production enhancers and use thereof” (priority 2001, published 2005).
# What was measured:
# Format in all cases: cell-based
# [1] = test system: new-born hamster fibroblasts; experiment: Collagen production by L-ascorbic acid 2-glucoside or sodium L-ascorbate with or without royal jelly, seven-day culture (Experiment 3); details: for Collagen production level: no additions = 100, relative value ± SD
# Method: Royal jelly was dissolved in D-MEM medium containing 10% (v/v) FCS to give a concentration of 200 μg/ml, and then L-ascorbic acid 2-glucoside was dissolved in the resulting medium to give a concentration of 0.2, 0.5 or 1.0 μg/ml in terms of the weight of L-ascorbic acid. As controls, L-ascorbic acid 2-glucoside was dissolved in D-MEM medium, supplemented with 10% (v/v) FCS but with no royal jelly, to give a concentration of 0.2, 0.5, or 1.0 μg/ml in terms of the weight of L-ascorbic acid. Similarly as in Experiment 1, new-born hamster fibroblasts were cultured for seven days in 6-well plates and further cultured for seven days after the supernatant in each plate was replaced with 5 ml of any of the above media, which dissolved the above-identified L-ascorbic acid 2-glucoside and royal jelly, or those prepared for use as controls. Thereafter, the collagen production level in each well was determined by the same method as in Experiment 1. As a negative control, a medium, supplemented with 200 μg/ml of royal jelly and 1 μg/ml of sodium L-ascorbate in terms of the weight of L-ascorbic acid, was added to the fibroblasts similarly as above, and the cells were cultured for seven days.
# The fibroblasts with no addition of L-ascorbic acid 2-glucoside gave a lower collagen production level similarly as that of the control in Experiment 1, independently of the addition of royal jellies. When ascorbic acid 2-glucoside was added to give a concentration of 0.2 μg/ml or more, the collagen production level was enhanced as compared with the system with no L-ascorbic acid 2-glucoside, and the level was more enhanced by the addition of royal jellies.
# [2] = test system: new-born hamster fibroblasts; experiment: TGF-β production by fibroblasts, TGF-β1 Emax ImmunoAssay System (Experiment 4); details: 24 hours, no additions = 100, relative value ± SD
# Method: To study the mechanism of the enhancement of collagen production by royal jellies and/or L-ascorbic acids, the influence of royal jelly and/or L-ascorbic acid 2-glucoside, which had been reported to enhance the production of mRNA for collagen in fibroblasts, on the production of TGF-β was examined by the following method: • (1) Assay for TGF-β: • TGF-β was assayed on TGF-β1 Emax ImmunoAssay System, commercialized by Promega Corporation, Tokyo, Japan. • (2) Assay for TGF-β produced by fibroblasts in the presence of royal jelly and/or L-ascorbic acid 2-glucoside: • TGF-β was assayed by inoculating 1×10^4 cells/well of new-born hamster fibroblasts, prepared by the method similarly as in Experiment 1, to 96-well microplates, commercialized by Nippon Becton. […]
# [3] = test system: new-born hamster fibroblasts; experiment: Influence of royal jelly on the collagen production by L-ascorbic acid, significant difference test (Experiment 2)
# Method: Using the assay system for the collagen production level used in Experiment 1, it was studied the influence of royal jellies on the collagen production by L-ascorbic acids: New-born hamster fibroblasts, prepared similarly as the method in Experiment 1, were seeded in 6-well plates and cultured for seven days. […] In this experiment, three wells were used for each concentration. The results were evaluated whether there existed a significant difference between the count in a control system and those in the test systems with different concentrations of heated or unheated royal jelly, based on the count for the control system with no royal jelly that was detected by a liquid scintillation counter, as a control.
# [4] = test system: new-born hamster fibroblasts; experiment: Collagen production by new-born hamster fibroblasts, [2,3-3H] proline taken into collagen (Experiment 1); details: for Relative amount of collagen production: no addition = 100, relative value ± SD
# Method: According to conventional manner, the dorsum skin of a new-born hamster was cut and detached, and fibroblasts were isolated from the detached skin. The preparation method is outlined below: To detach the epidermis from the dermis, the debris was placed and allowed to stand at 4° C. overnight in Eagle's minimum essential medium, commercialized by Nippon Suisan Kaisha, Ltd., Tokyo, Japan, containing 0.03 mM Ca^2+, in which 500 units/ml of a dispase commercialized by Godo Shusei Co., Ltd., Tokyo, Japan, was dissolved. The detached dermis was kept at 37° C. for one hour in Dulbecco minimum essential medium (abbreviated as “D-MEM”, hereinafter), commercialized by Nippon Suisan Kaisha, Ltd., Tokyo, Japan, in which 0.25% (v/v) of a collagenase commercialized by Amano Enzyme, Aichi, Japan, was dissolved. Thereafter, the resulting cell debris of the dermis were pipetted into a cell suspension with singly dispersed cells of new-born hamster fibroblasts, followed by collecting the cells by centrifugation. The cells were suspended in phosphate-buffered saline and allowed to stand for 30 min, followed by centrifugally collecting the resulting supernatant with fibroblasts and re-suspending the cells in D-MEM supplemented with 10% (v/v) of a fetal bovine serum (abbreviated as “FCS”, hereinafter) commercialized by GIBCO Bethesda Research Laboratories, Bethesda, Md., USA, into a cell suspension for use in the following assay for collagen production level.
# The following cells were cultured in an incubator with 5% (v/v) CO2 at 37° C. Three milliliter aliquots of the cell suspension of new-born hamster fibroblasts, prepared in the above 3, were seeded in 6-well plates to give a cell density of 4×10^5 cells/well and cultured for seven days. To D-MEM supplemented with 10% (v/v) FCS was added and dissolved therein L-ascorbic acid to give a concentration of 0.0, 0.1, 0.2, 0.5, 1.0, 2.0, 5.0, 10.0, 20.0, 50.0, 100.0, or 200.0 μg/ml. Similarly as above, either a heated royal jelly or an unheated royal jelly was added to and dissolved in D-MEM supplemented with 10% (v/v) FCS to give a concentration of 0.0, 0.1, 0.2, 0.5, 1.0, 2.0, 5.0, 10.0, 20.0, 50.0, 100.0, 200.0, or 500.0 μg/ml. Five milliliter aliquot of any one of the above media supplemented with L-ascorbic acid or the heated or unheated royal jelly was added to each well of the plates, which had been removed off the culture supenatants of fibroblast cultures, followed by culturing the cells for three days. Thereafter, the supernatant in each well was replaced with five milliliters of a fresh medium supplemented with the same concentration of L-ascorbic acid or the heated or unheated royal jelly as mentioned-above, and the cells were sequentially cultured for three days, replaced with one milliliter of a fresh medium having the same concentration of L-ascorbic acid or the heated or unheated royal jelly as mentioned-above, cultured for three hours, admixed with [2,3-^3H] proline (40 Ci/mmol) commercialized by Amersham Corp., Div. Amersham International, Ill., USA, which had been dissolved in D-MEM to give a concentration of 3 μCi/well, and further cultured overnight. All the culture media, including those supplemented with L-ascorbic acid or the heated or unheated royal jelly, used in this experiment, were filtered with a 0.22 μm filter before use.
# In the above 4, after the fibroblasts of new-born hamster were cultured in the presence of [2,3-^3H] proline, collagen was extracted from the cells in a usual manner and quantified for [2,3-^3H] proline taken thereinto. The quantitation was carried out by the method disclosed by Seong-Jin Kim et al. in Dermatologic Surgery, Vol. 24, pp. 1,054-1,058 (1998). […]
# [5] = test system: new-born hamster fibroblasts; experiment: Collagen production by L-ascorbic acid 2-glucoside or sodium L-ascorbate with or without royal jelly, seven-day culture (Experiment 3); details: 1 μg/ml L-ascorbic acid, three days, medium replaced with fresh one, three further days; data omitted
# [6] = L-ascorbic acid 2-glucoside 0.2 μg/ml (as L-ascorbic acid) with royal jelly 200 μg/ml
# [7] = L-ascorbic acid 2-glucoside 0.2 μg/ml (as L-ascorbic acid), no royal jelly
molecule,measurement,setting,value
O=C1O[C@H]([C@@H](O)CO)C(O)=C1O[C@H]1O[C@H](CO)[C@@H](O)[C@H](O)[C@H]1O [L-ascorbic acid 2-glucoside],Collagen production level,[1]; [6],298 ± 30
same,Collagen production level,[1]; [7],219 ± 31
same,Collagen production level,[1]; L-ascorbic acid 2-glucoside 0.5 μg/ml (as L-ascorbic acid) with royal jelly 200 μg/ml,1440 ± 70
same,Collagen production level,"[1]; L-ascorbic acid 2-glucoside 0.5 μg/ml (as L-ascorbic acid), no royal jelly",527 ± 17
same,Collagen production level,[1]; L-ascorbic acid 2-glucoside 1.0 μg/ml (as L-ascorbic acid) with royal jelly 200 μg/ml,3168 ± 318
same,Collagen production level,"[1]; L-ascorbic acid 2-glucoside 1.0 μg/ml (as L-ascorbic acid), no royal jelly",2250 ± 436
same,Concentration of L-ascorbic acid 2-glucoside at which the collagen production level was enhanced,[1]; compared with the system with no L-ascorbic acid 2-glucoside,≥ 0.2 µg/mL
same,Stability dissolved in media,"[1]; culture medium, seven days, compared with L-ascorbic acid",advantageously more stable as compared with L-ascorbic acid
same,Production level of TGF-β,[2]; [6],132 ± 12
same,Production level of TGF-β,[2]; [7],111 ± 5
"O=C1O[C@H]([C@@H](O)CO)C([O-])=C1O.[Na+] [L-ascorbic acid, Sodium L-ascorbate]",Lowest concentration of L-ascorbic acid exerting the collagen-production action in combination with royal jelly,[3],0.2 µg/mL
same,Relative amount of collagen production,[4]; L-ascorbic acid 0.1 μg/ml,95 ± 13
same,Relative amount of collagen production,[4]; L-ascorbic acid 0.2 μg/ml,118 ± 26
same,Relative amount of collagen production,[4]; L-ascorbic acid 0.5 μg/ml,210 ± 33
same,Relative amount of collagen production,[4]; L-ascorbic acid 1.0 μg/ml,482 ± 89
same,Relative amount of collagen production,[4]; L-ascorbic acid 2.0 μg/ml,1497 ± 155
same,Relative amount of collagen production,[4]; L-ascorbic acid 5.0 μg/ml,1755 ± 151
same,Relative amount of collagen production,[4]; L-ascorbic acid 10.0 μg/ml,2089 ± 160
same,Relative amount of collagen production,[4]; L-ascorbic acid 20.0 μg/ml,2456 ± 186
same,Relative amount of collagen production,[4]; L-ascorbic acid 50.0 μg/ml,2841 ± 341
same,Relative amount of collagen production,[4]; L-ascorbic acid 100.0 μg/ml,2956 ± 500
same,Relative amount of collagen production,[4]; L-ascorbic acid 200.0 μg/ml,2863 ± 456
same,Minimum effective amount of L-ascorbic acid for producing collagen,[4]; sole use,0.5 µg/mL
same,Concentration at which the level of collagen production reached a plateau level,"[4]; sole use, no significant increase above",≥ 50 µg/mL
Sodium L-ascorbate [L-ascorbic acid],Collagen production with medium replacement,[5],enhanced level of collagen production
same,"Enhancement of collagen production, negative control","[1]; 1 μg/ml sodium L-ascorbate (as L-ascorbic acid) with 200 μg/ml royal jelly, seven days, medium not replaced",no enhancement of collagen production
